From patent US20110111016A1, “NON-DNA BASE-CONTAINING POLYNUCLEOTIDE COMPOSITIONS AND THEIR USE FOR THE MODULATION OF IMMUNE RESPONSES” (priority 2009, published 2011)

Legend:
human TLR5 = molecular target: T1, human TLR5 (Homo sapiens, UniProt O60602); experiment: NF-κB activation (secreted alkaline phosphatase reporter) in HEK293 cells expressing human TLR5; assay type: cell-based; conditions: HEK293/hTLR5 cell line; polynucleotide final concentration 10 μg/mL; 16-20 hours
T1 construct: host or cells: HEK293
T1 sequence (O60602 21-858): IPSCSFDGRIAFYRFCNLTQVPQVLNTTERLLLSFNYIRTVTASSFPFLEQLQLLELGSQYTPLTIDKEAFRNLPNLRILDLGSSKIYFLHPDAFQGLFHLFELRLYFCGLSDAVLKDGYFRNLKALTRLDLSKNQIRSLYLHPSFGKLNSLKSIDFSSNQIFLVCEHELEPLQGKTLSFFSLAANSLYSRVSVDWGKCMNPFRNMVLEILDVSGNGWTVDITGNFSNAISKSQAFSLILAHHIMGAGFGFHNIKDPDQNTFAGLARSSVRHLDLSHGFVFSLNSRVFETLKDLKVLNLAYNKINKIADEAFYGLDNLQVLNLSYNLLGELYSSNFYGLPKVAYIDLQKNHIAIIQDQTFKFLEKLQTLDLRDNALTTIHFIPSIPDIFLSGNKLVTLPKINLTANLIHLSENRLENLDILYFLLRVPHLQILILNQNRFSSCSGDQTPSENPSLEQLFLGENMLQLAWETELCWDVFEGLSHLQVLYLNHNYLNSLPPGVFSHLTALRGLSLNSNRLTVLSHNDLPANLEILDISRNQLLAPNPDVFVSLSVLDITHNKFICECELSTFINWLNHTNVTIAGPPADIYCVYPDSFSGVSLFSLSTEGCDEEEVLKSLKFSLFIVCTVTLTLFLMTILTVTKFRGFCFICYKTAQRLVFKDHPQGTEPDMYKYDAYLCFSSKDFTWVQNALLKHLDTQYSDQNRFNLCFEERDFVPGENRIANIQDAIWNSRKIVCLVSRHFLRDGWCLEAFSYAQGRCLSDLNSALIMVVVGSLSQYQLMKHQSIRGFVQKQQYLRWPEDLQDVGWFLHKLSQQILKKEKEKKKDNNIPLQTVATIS
Description: (§1) Toll-like receptors (TLR) are known to interact with a number of natural and synthetic molecules that can function as immune adjuvants. Examples of these molecules are Poly (I:C) polynucleotides, lipopolysaccharide and CpG-containing polynucleotides. The interaction of non-DNA base-containing polynucleotides (SEQ ID NOs: 1-3) to interact with TLR and induce down-stream signaling was tested by assessing NF-κB activation in HEK293 cells expressing human TLR2, 3, 4, 5, 7, 8 and 9. TLR engagement was determined by measurement of secreted alkaline phosphatase, under the control of a reporter inducible by NF-κB. Appropriate positive controls were used for each TLR. The non-DNA base-containing polynucleotides were dissolved in sterile water at a concentration of 100 μg/mL, and used at a final concentration of 10 μg/mL. HEK293 cells containing the appropriate TLR and NF-κB reporting system (InvivoGen, San Diego, Calif., USA) were placed in wells of 96 well plates (25,000-50,000 cells, in a final volume of 200 μL medium designed for the detection of NF-κB induced secreted alkaline phosphatase expression), and incubated with non-DNA base-containing polynucleotides or positive controls for 16-20 hours. TLR activating activity was determined by measurement of absorbance at 650 nm wavelength using a Coulter AD340C absorbance detector. The results shown are expressed as Optical Density (OD).

human TLR3 = molecular target: T2, human TLR3 (Homo sapiens, UniProt O15455); experiment: NF-κB activation (secreted alkaline phosphatase reporter) in HEK293 cells expressing human TLR3; assay type: cell-based; conditions: HEK293/hTLR3 cell line; polynucleotide final concentration 10 μg/mL; 16-20 hours
T2 construct: host or cells: HEK293
T2 sequence (O15455 24-904): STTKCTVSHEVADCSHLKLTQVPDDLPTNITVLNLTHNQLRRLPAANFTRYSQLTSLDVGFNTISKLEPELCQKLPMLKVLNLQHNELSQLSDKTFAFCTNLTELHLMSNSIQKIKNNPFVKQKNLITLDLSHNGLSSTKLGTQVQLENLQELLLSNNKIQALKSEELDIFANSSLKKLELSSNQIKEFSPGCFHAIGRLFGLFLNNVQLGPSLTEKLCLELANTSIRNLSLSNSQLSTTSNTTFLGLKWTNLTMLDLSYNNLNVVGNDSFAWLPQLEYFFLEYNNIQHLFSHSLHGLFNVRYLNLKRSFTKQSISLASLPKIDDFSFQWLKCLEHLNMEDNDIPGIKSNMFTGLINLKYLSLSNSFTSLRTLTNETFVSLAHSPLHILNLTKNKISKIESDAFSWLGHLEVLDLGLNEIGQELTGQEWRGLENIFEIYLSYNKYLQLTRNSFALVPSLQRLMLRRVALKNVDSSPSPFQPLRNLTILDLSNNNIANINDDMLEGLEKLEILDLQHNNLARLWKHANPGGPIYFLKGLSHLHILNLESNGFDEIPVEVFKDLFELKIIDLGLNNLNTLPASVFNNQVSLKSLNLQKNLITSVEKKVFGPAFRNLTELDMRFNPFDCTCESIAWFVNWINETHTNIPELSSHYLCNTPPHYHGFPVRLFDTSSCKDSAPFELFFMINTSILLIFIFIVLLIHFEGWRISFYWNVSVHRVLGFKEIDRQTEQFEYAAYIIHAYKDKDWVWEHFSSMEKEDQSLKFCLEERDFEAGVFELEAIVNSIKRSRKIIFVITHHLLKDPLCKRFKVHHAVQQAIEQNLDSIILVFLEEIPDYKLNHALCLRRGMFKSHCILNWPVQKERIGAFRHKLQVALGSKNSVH
Description: as §1

Substance: UUGTUU [SEQ ID NO: 2]
- TLR activation, Optical Density at 650 nm, hTLR5 (human TLR5): 0.143
- TLR activation, Optical Density at 650 nm, hTLR3 (human TLR3): 0.056

Substance: IIGTII [SEQ ID NO: 3]
- TLR activation, Optical Density at 650 nm, hTLR5 (human TLR5): 0.155
- TLR activation, Optical Density at 650 nm, hTLR3 (human TLR3): 0.057

Substance: NebGGTGNeb (DNA NGGTGN; Nebularine at both ends, sugar and linkages not given here, further chemistry not given here) [SEQ ID NO: 1, 5′-OH, 3′-OH non-DNA base-containing polynucleotide]
- TLR activation, Optical Density at 650 nm, hTLR5 (human TLR5): 0.158
- TLR activation, Optical Density at 650 nm, hTLR3 (human TLR3): 0.055
